How the values were obtained:
[1] = tested on: SMA Δ7 homozygous knockout mice; experiment: Righting reflex in neonatal Δ7 SMA mice; format: in vivo, mouse; conditions: IP QD from PND 3 to day 24, then orally BID, compared to vehicle
Description: The functional change in righting reflex of neonatal SMA mice is used to determine whether treatment with a test compound improves righting reflex.
Protocol. SMA Δ7 homozygous knockout mice are dosed intraperitoneally (IP) with test compound or vehicle (100% DMSO) once per day (QD) from postnatal day (PND) 3 until the dose regimen is switched to an oral dose twice per day (BID) in 0.5% hydroxypropylmethyl cellulose (HPMC) with 0.1% Tween-80 at a dose 3.16-fold higher than the dose used for IP. The righting reflex time is measured as the time taken by a mouse to flip over onto its feet after being laid on its back. Righting reflex is measured five times for each mouse (allowing a maximal time of 30 sec for each try) with 5 minutes between each measurement. The righting reflex time for SMA Δ7 homozygous knockout mice treated with test compound or vehicle and age-matched heterozygous mice is measured on PND 10, 14 and 18 and plotted.

Smn protein = Smn protein assay in human motor neurons; format: cell-based; conditions: human motor neurons derived from SMA iPS cells; increasing concentrations; 72 hours; confocal fluorescence microscopy
Description: Smn immunofluorescent confocal microscopy is used to quantify the level of Smn protein in human motor neurons treated with test compounds.
Protocol. Human motor neurons derived from SMA iPS cells (Ebert et al., Nature, 2009, […]; and, Rubin et al., BMC Biology, 2011, 9:42) are treated with test compound at various concentrations for 72 hours. The level of Smn protein in the cell nucleus is quantified using Smn immunostaining and confocal fluorescence microscopy essentially as described in Makhortova et al., Nature Chemical Biology, 2011, 7:544. The level of Smn protein in compound-treated samples is normalized to that in vehicle-treated samples and plotted as a function of the compound concentration.

[2] = tested on: full length and Δ7 SMN2 mRNAs; experiment: Endogenous SMN2 mRNA end-point semi-quantitative RT-PCR splicing assay in cultured cells; format: cell-based, human; conditions: GM03813 Type 1 SMA patient fibroblasts, increasing concentrations, 24 hrs, agarose gel
Description: The endpoint reverse transcription-PCR splicing assay is used to visualize and quantify the levels of the full length and Δ7 SMN2 mRNAs in primary cells and cell lines containing the SMN2 gene treated with a test compound.
Protocol. GM03813 SMA patient cells (5,000 cells/well) are seeded in 200 μL of cell culture medium (DMEM plus 10% FBS) in 96-well flat-bottom plates and the plate is immediately swirled to ensure proper dispersal of cells, forming an even monolayer of cells. Cells are allowed to attach for at least 4-6 hrs. Test compounds are serially diluted 3.16-fold in 100% DMSO to generate a 7-point concentration curve. A solution of test compound (1 μL, 200× in DMSO) is added to each test well and 1 μL DMSO is added to each control well. The plate is incubated for 24 hrs in a cell culture incubator (37° C., 5% CO2, 100% relative humidity). The cells are then lysed in Cells-To-Ct lysis buffer and the lysate is stored at −80° C.
SMN FL and Δ7 mRNAs are identified using the following primers in Table 6. These primers hybridize to a nucleotide sequence in exon 6 (SMN Forward C, SEQ ID NO. 11) (nucleotide 43 to nucleotide 63) and exon 8 (SMN Reverse C, SEQ ID NO. 12) (nucleotide 51 to nucleotide 73) common to human SMN1 and SMN2 mRNAs. Since the SMA patient cells used in Example 4 contain only the SMN2 gene, RT-PCR can visualize and quantify only SMN2 full-length and SMN2 Δ7 mRNAs.
To synthesize cDNA, 5 μL of lysate, 4 μL of 5× iScript reaction mix, 1 μL of reverse transcriptase, and 10 μL of water are combined and incubated 5 min at 25° C. followed by 30 min at 42° C., followed by 5 min at 85° C. cDNA solution is stored at −20° C.
To perform endpoint PCR, 5 μL of cDNA, 0.2 μL of 100 μM forward primer, 0.2 μL of 100 μM reverse primer, and 22.5 μL of polymerase super mix are combined in a 96 well semiskirted PCR plate. PCR is carried out at the following temperatures for indicated time: Step 1: 94° C. (2 min), Step 2: 94° C. (30 sec), Step 3: 55° C. (30 sec), Step 4: 68° C. (1 min), then repeat Steps 2 to 4 for a total of 33 cycles, then hold at 4° C.
10 μL of each PCR sample is electrophoretically separated on a 2% agarose E-gel for 14 minutes stained with ds DNA staining reagents (e.g., ethidium bromide) and visualized using a gel imager.

| Compound | righting reflex [1] | Smn protein in the nucleus (Smn protein) | SMN2 FL mRNA [2] | SMN2 Δ7 mRNA [2] |
| --- | --- | --- | --- | --- |
| CC(C)NCCc1ccc2cc(-c3nc4c(Cl)cccc4s3)c(=O)oc2c1 [Cpd 35, 3-(4-chloro-1,3-benzothiazol-2-yl)-7-[2-(propan-2-ylamino)ethyl]-2H-chromen-2-one] | improved compared to vehicle treated mice | progressively more Smn protein in the nucleus | progressively more SMN2 FL mRNA | less SMN2 Δ7 mRNA |
| CCN1CCN(c2ccc3cc(-c4cn5cc(C)nc(C)c5n4)c(=O)oc3c2)C[C@@H]1C [Cpd 626, 3-(6,8-dimethylimidazo[1,2-a]pyrazin-2-yl)-7-[(3S)-4-ethyl-3-methylpiperazin-1-yl]-2H-chromen-2-one] |  | progressively more Smn protein in the nucleus | progressively more SMN2 FL mRNA | less SMN2 Δ7 mRNA |
